This is an account of results in publication PMC4967898, “Peptides interfering with protein-protein interactions in the ethylene signaling pathway delay tomato fruit ripening” (Scientific Reports, 2016).

“Also recorded” adds a separate entry of the source.

In assay [1] the target is T1, tomato EIN2-ETR1 complex (Solanum lycopersicum, UniProt Q41342).
T1 construct: made in house; host or cells: E. coli BL21(DE3) with pRARE (LeEIN2 fragment); E. coli (LeETR1)
T1 sequence (Q41342 1-754): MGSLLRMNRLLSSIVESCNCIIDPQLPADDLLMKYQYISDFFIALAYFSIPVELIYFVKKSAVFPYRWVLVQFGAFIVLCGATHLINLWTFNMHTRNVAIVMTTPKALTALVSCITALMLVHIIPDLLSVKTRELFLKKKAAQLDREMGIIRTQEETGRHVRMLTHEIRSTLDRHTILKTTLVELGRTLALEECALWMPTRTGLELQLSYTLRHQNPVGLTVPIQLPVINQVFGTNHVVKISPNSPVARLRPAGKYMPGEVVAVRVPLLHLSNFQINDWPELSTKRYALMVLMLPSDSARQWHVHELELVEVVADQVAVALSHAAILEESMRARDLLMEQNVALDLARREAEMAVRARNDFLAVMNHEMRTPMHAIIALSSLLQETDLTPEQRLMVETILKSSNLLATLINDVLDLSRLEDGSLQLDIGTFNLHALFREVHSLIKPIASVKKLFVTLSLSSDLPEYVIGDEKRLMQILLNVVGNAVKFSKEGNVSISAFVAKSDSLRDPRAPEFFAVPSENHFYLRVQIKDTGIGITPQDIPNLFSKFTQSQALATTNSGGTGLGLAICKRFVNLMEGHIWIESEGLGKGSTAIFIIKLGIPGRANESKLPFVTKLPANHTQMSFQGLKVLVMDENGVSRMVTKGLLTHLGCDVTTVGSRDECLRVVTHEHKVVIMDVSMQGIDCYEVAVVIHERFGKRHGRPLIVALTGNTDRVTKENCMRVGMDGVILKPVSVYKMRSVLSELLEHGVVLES
Kind of assay: FRET assay of LeEIN2-LeETR1 complex formation. The format is biochemical. An excerpt:
(§1) For this purpose, we made use of a fluorescence resonance energy transfer (FRET)-based in vitro assay, originally established for the respective Arabidopsis signaling proteins. Recombinant ethylene proteins LeETR1 and LeEIN2^462–1316 were labeled with fluorescent Alexa dyes[36] as described in the Methods section. LeETR1 was labeled with Alexa Fluor 488, while LeEIN2^462–1316 was labeled with Alexa Fluor 568. As the emission spectrum of the donor fluorophore partially overlaps with the excitation spectrum of the acceptor fluorophore, the dyes form a FRET pair and energy transfer from the donor to the acceptor fluorophore is possible when both probes get in close proximity. […] Formation of the complex is monitored by FRET from the donor molecule Alexa Fluor 488 to the acceptor molecule Alexa Fluor 568. Processes or molecules that prevent complex formation result in a reduced FRET from the donor to the acceptor, which is detected as reduced acceptor fluorescence at the emission maximum.
Quantitative analysis of inhibitory peptides on ETR1-EIN2 complex by FRET
For the FRET assay, recombinant LeETR1 was labeled with Alexa Fluor 488 succinimidyl-ester and LeEIN2^462–1316 was labeled with Alexa Fluor 568 succinimidyl-ester (both Life Technologies) in a buffer containing 50 mM potassium phosphate pH 8.0, 300 mM NaCl and 5% (v/v) glycerol following manufacturer’s protocol (MolecularProbes Protein Labeling Kit). Labeled proteins were transferred in FRET buffer containing 50 mM Tris-HCl pH 8.0, 300 mM NaCl, 0.05% (v/v) Tween 20, 5% (v/v) glycerol and mixed at a final concentration of 3.0 μM each. […] The FRET-based binding assay was carried out in 384-well microplates using an Infinite M200 Pro microplate reader (Tecan) at 455 nm excitation wavelength. Emission spectra were detected between 565 nm to 645 nm. FRET efficiencies were calculated from the maximal emission in the absence and in the presence of the supplied peptides and the half maximal inhibitor concentration IC50 was calculated as previously described.

Assay [2] can be described thus: Fluorescence of the dyes on their own (FRET control). The settings on record: 100 μM peptide; free dyes.
Source text: as §1
(b) Calculation of IC50 value for NOP-1. Data were obtained in the FRET-assay in presence of increasing concentrations of NOP-1 peptide. […] (c) Determination of Kd value of NOP-1 binding to LeETR1 based on MST is illustrated. MST-signal is plotted against the NOP-1 concentration. […] All data (a,b,c) represent the mean +/− standard deviation.

For the compound `CC(C)C[C@H](NC(=O)[C@H](CCCNC(=N)N)NC(=O)[C@H](CCCNC(=N)N)NC(=O)[C@H](CCCCN)NC(=O)[C@H](Cc1ccc(O)cc1)NC(=O)[C@H](CCCNC(=N)N)NC(=O)[C@H](CCCCN)NC(=O)[C@@H](N)CC(C)C)C(N)=O` [NOP-1, LKRYKRRL-NH2], in assay [1] (100 μM NOP-1, LeETR1-Alexa Fluor 488 and LeEIN2^462–1316-Alexa Fluor 568, 3 μM each, 50 mM Tris-HCl pH 8.0, 300 mM NaCl, 0.05% Tween 20, 5% glycerol, excitation 455 nm, emission 565–645 nm), the “FRET efficiency (of the value observed in the absence of NOP-1)” value is on record as “about 9%”. In assay [1] (FRET assay, 100 μM peptide where stated, LeETR1-Alexa Fluor 488 and LeEIN2-Alexa Fluor 568, 3 μM each), the “effect on tomato EIN2-ETR1 complex formation” value is given as “pronounced inhibition in FRET efficiency; also recorded: leads to a reduced FRET from LeETR1-Alexa Fluor 488 to LeEIN2-Alexa Fluor 568; also recorded: able to efficiently disrupt EIN2-ETR1 complex formation in tomato; also recorded: specific disruption of the tomato EIN2-ETR1 complex”. The “effect on fluorescence of the dyes on their own” value in assay [2] was “not affected by the peptides; also recorded: Neither of both peptides affected fluorescence of the free, unlabeled dyes”.
